In patent publication US11767341B2, “Lincosamide antibiotics and uses thereof” (President and Fellows of Harvard College, priority 2017, dated 2023):
Converted amounts (≈) assume the structure as drawn. Like-named read-outs stand apart in the source and are kept apart here.

How the values were obtained:
Test in all cases: MIC determination
Assay type in all cases: cell-based
[1] = tested on: S. aureus Micromyx USA 300; details: Staphylococcus aureus, USA300; S. aureus Micromyx USA 300; read-out: MIC
S. pneumoniae ATCC 49619 = details: Streptococcus pneumoniae, ATCC49619
S. aureus MMX 3035 cErmA = details: Staphylococcus aureus, MMX3035CERMA
S. aureus BAA 977 iErmA = details: Staphylococcus aureus, BAA977
[2] = tested on: P. aeruginosa MMX 3476 Δmex; details: Pseudomonas aeruginosa
S. aureus ATCC 29213 = details: Staphylococcus aureus
C. difficile BAA 1805 = details: Clostridioides difficile, BAA1805
[3] = tested on: P. aeruginosa MMX Mex parent strain; details: Pseudomonas aeruginosa
[4] = tested on: E. faecalis MMX 847 Macrolide-Resistant; details: Enterococcus faecalis
[5] = tested on: S. pneumoniae MMX 3028 cErmB; details: Streptococcus pneumoniae, MMX3028CERMB
E. coli ATCC 25922 = details: Escherichia coli, ATCC25922
P. aeruginosa ATCC 27853 = details: Pseudomonas aeruginosa, ATCC27853
E. coli MMX 0121 ΔTolC = details: Escherichia coli
E. faecalis ATCC 29212 = details: Enterococcus faecalis
B. fragilis ATCC 25285 = details: Bacteroides fragilis, ATCC25285
S. pyogenes ATCC 19615 = details: Streptococcus pyogenes, ATCC19615; S. pyogenes ATCC 19615; read-out: MIC
[6] = tested on: S. pyogenes MMX 946 Macrolide-Resistant; details: Streptococcus pyogenes
[7] = tested on: S. pneumoniae MMX 3031 cMefA; details: Streptococcus pneumoniae, MMX3031CMEFA
[8] = tested on: E. coli MMX TolC parent strain; details: Escherichia coli
H. influenzae ATCC 49247 = details: Haemophilus influenzae, ATCC49247
[9] = tested on: E. coli MP-74 LptD mutant; details: Escherichia coli
E. coli MP-9 ΔTolC = details: Escherichia coli
K. pneumoniae ATCC 10031 = details: Klebsiella pneumoniae, ATCC10031
[10] = tested on: S. aureus MP-549 msr(a) USA 300; details: Staphylococcus aureus, USA300, S. aureus MP-549 msr(a) USA 300
[11] = S. pneumoniae ATCC 49619, read-out: MIC
[12] = ATCC29213, S. aureus ATCC 29213, read-out: MIC
[13] = C. difficile BAA 1805, read-out: MIC
[14] = S. pneumoniae MMX 3028 cErmB, read-out: MIC

CSC1O[C@H]([C@H](NC(=O)[C@H]2NC[C@@H]3C=C(c4ccc(C(F)(F)F)cc4)CCO[C@@H]23)[C@H](C)Cl)C(O)[C@@H](O)[C@H]1O (some centres unmarked) [FSA-507053]
MIC [1]: 0.12 µg/mL (≈ 0.207 µM)
MIC (S. pneumoniae ATCC 49619; [11]): 0.25 µg/mL (≈ 0.43 µM)
MIC (S. aureus MMX 3035 cErmA): > 64 µg/mL
MIC (S. aureus BAA 977 iErmA): 0.25 µg/mL (≈ 0.43 µM)
MIC [2]: > 64 µg/mL
MIC (S. aureus ATCC 29213; [12]): 0.25 µg/mL (≈ 0.43 µM)
MIC (C. difficile BAA 1805; [13]): 8 µg/mL (≈ 13.8 µM)
MIC [3]: > 64 µg/mL
MIC [4]: > 64 µg/mL
MIC [5, 14]: 32 µg/mL (≈ 55.1 µM)
MIC (E. coli ATCC 25922): > 64 µg/mL
MIC (P. aeruginosa ATCC 27853): > 64 µg/mL
MIC (E. coli MMX 0121 ΔTolC): 16 µg/mL (≈ 27.5 µM)
MIC (E. faecalis ATCC 29212; ATCC29212, read-out: MIC): 2 µg/mL (≈ 3.44 µM)
MIC (B. fragilis ATCC 25285): 16 µg/mL (≈ 27.5 µM)
MIC (S. pyogenes ATCC 19615): ≤ 0.06 µg/mL
MIC ([6]; S. pyogenes MMX 946 Macrolide-Resistant (MacRes), read-out: MIC): 32 µg/mL (≈ 55.1 µM)
MIC [7]: 0.12 µg/mL (≈ 0.207 µM)
MIC [8]: > 64 µg/mL
MIC (H. influenzae ATCC 49247): 16 µg/mL (≈ 27.5 µM)

C=CC1=CCO[C@@H]2[C@H](CN[C@@H]2C(=O)N[C@H]([C@H](C)Cl)[C@H]2OC(SC)[C@H](O)[C@H](O)C2O)C1 (some centres unmarked) [FSA-507041]
MIC [1]: 0.25 µg/mL (≈ 0.54 µM)
MIC (S. pneumoniae ATCC 49619; [11]): ≤ 0.03 µg/mL
MIC (S. aureus MMX 3035 cErmA): > 32 µg/mL
MIC (S. aureus BAA 977 iErmA): 0.5 µg/mL (≈ 1.08 µM)
MIC [2]: > 32 µg/mL
MIC (S. aureus ATCC 29213; [12]): 0.5 µg/mL (≈ 1.08 µM)
MIC (C. difficile BAA 1805; [13]): 0.5 µg/mL (≈ 1.08 µM)
MIC [3]: > 32 µg/mL
MIC [4]: > 32 µg/mL
MIC [5, 14]: 32 µg/mL (≈ 69.1 µM)
MIC (E. coli ATCC 25922): > 32 µg/mL
MIC (P. aeruginosa ATCC 27853): > 32 µg/mL
MIC (E. coli MMX 0121 ΔTolC): 16 µg/mL (≈ 34.6 µM)
MIC (E. faecalis ATCC 29212; ATCC29212, read-out: MIC): 2 µg/mL (≈ 4.32 µM)
MIC (B. fragilis ATCC 25285; B. fragilis ATCC 25285, read-out: MIC): 2 µg/mL (≈ 4.32 µM)
MIC (S. pyogenes ATCC 19615): 0.06 µg/mL (≈ 0.13 µM)
MIC [6]: > 32 µg/mL
MIC [7]: ≤ 0.03 µg/mL
MIC [8]: > 32 µg/mL
MIC (H. influenzae ATCC 49247): 16 µg/mL (≈ 34.6 µM)

CSC1O[C@H]([C@H](NC(=O)[C@H]2NC[C@@H]3CC(c4ccc(F)cc4)=CCO[C@H]32)[C@H](C)Cl)C(O)[C@@H](O)[C@H]1O (some centres unmarked) [FSA-507057]
MIC [1]: 0.5 µg/mL (≈ 0.942 µM)
MIC (S. pneumoniae ATCC 49619; [11]): ≤ 0.06 µg/mL
MIC (S. aureus MMX 3035 cErmA): > 64 µg/mL
MIC (S. aureus BAA 977 iErmA): 1 µg/mL (≈ 1.88 µM)
MIC [2]: > 64 µg/mL
MIC (S. aureus ATCC 29213; [12]): 2 µg/mL (≈ 3.77 µM)
MIC (C. difficile BAA 1805; [13]): 16 µg/mL (≈ 30.1 µM)
MIC [3]: > 64 µg/mL
MIC [4]: > 64 µg/mL
MIC [5]: 64 µg/mL (≈ 121 µM)
MIC (E. coli ATCC 25922): > 64 µg/mL
MIC (P. aeruginosa ATCC 27853): > 64 µg/mL
MIC (E. coli MMX 0121 ΔTolC): 64 µg/mL (≈ 121 µM)
MIC (E. faecalis ATCC 29212; ATCC29212, read-out: MIC): 1 µg/mL (≈ 1.88 µM)
MIC (B. fragilis ATCC 25285): 64 µg/mL (≈ 121 µM)
MIC (S. pyogenes ATCC 19615): 0.12 µg/mL (≈ 0.226 µM)
MIC [6]: > 64 µg/mL
MIC [7]: ≤ 0.06 µg/mL
MIC [8]: > 64 µg/mL
MIC (H. influenzae ATCC 49247): 64 µg/mL (≈ 121 µM)

CNC1CCO[C@@H]2[C@H](CN[C@@H]2C(=O)N[C@H]([C@H](C)Cl)[C@H]2OC(SC)[C@H](O)[C@H](O)C2O)C1 (some centres unmarked) [FSA-510065]
MIC (S. pneumoniae ATCC 49619): > 64 µg/mL
MIC [9]: > 64 µg/mL
MIC (E. coli MP-9 ΔTolC): > 64 µg/mL
MIC (S. aureus BAA 977 iErmA): > 64 µg/mL
MIC (S. aureus ATCC 29213; ATCC29213): > 64 µg/mL
MIC (C. difficile BAA 1805): > 64 µg/mL
MIC (E. coli ATCC 25922): > 64 µg/mL
MIC (E. faecalis ATCC 29212; ATCC29212): > 64 µg/mL
MIC (K. pneumoniae ATCC 10031): > 64 µg/mL
MIC (S. pyogenes ATCC 19615): 32 µg/mL (≈ 68.4 µM)
MIC (H. influenzae ATCC 49247): > 64 µg/mL
MIC [10]: > 64 µg/mL

CSC1O[C@H]([C@H](NC(=O)[C@H]2NC[C@@H]3C=C(c4ccc(F)cc4)CCO[C@@H]23)[C@H](C)Cl)C(O)[C@@H](O)[C@H]1O (some centres unmarked) [FSA-507052]
MIC [1]: 0.5 µg/mL (≈ 0.942 µM)
MIC (S. pneumoniae ATCC 49619; [11]): 0.25 µg/mL (≈ 0.471 µM)
MIC (S. aureus MMX 3035 cErmA): > 32 µg/mL
MIC (S. aureus BAA 977 iErmA): 2 µg/mL (≈ 3.77 µM)
MIC [2]: > 32 µg/mL
MIC (S. aureus ATCC 29213; [12]): 2 µg/mL (≈ 3.77 µM)
MIC (C. difficile BAA 1805; [13]): 16 µg/mL (≈ 30.1 µM)
MIC [3]: > 32 µg/mL
MIC [4]: > 32 µg/mL
MIC [5]: > 32 µg/mL
MIC (E. coli ATCC 25922): > 32 µg/mL
MIC (P. aeruginosa ATCC 27853): > 32 µg/mL
MIC (E. coli MMX 0121 ΔTolC): > 32 µg/mL
MIC (E. faecalis ATCC 29212; ATCC29212, read-out: MIC): 1 µg/mL (≈ 1.88 µM)
MIC (B. fragilis ATCC 25285): > 32 µg/mL
MIC (S. pyogenes ATCC 19615): 0.25 µg/mL (≈ 0.471 µM)
MIC [6]: > 32 µg/mL
MIC [7]: 0.12 µg/mL (≈ 0.226 µM)
MIC [8]: > 32 µg/mL
MIC (H. influenzae ATCC 49247): > 32 µg/mL
